These results are taken from patent publication US20220357332A1, “TRIPHENYLENE DERIVATIVES FOR USE IN IMAGING BIOLOGICAL TISSUE OR FLUID” (CHROMATWIST LIMITED, priority 2019, published 2022).

What all share (type): physicochemical
The nature of data set [1]: Luminescence data for pairs of compounds absorbing at the same wavelength and emitting at different wavelengths. To be noted: for ε × 10^3 (M^−1 cm^−1) at 355 nm / ε × 10^3 (M^−1 cm^−1) at 405 nm / ε × 10^3 (M^−1 cm^−1) at λMax / Absorption λMax / Emission λMax: solvent not given. An excerpt:
Referring now to Tables 2 to 4, there is provided luminescence data for pairs of compounds which are capable of absorbing at the same wavelength and emitting at different wavelengths.

The nature of data set [2]: Luminescent data (absorption, emission, quantum yield, brightness) in solvents. From the text: Referring now to Table 1, there is shown luminescent data for Compounds 1 to 6.
A short description of data set [3]: Solubility (statements in words). To be noted: water.
[4] abbreviates: Acetonitrile (ϵr 37.5, viscosity 0.38 cP).
[5] abbreviates: Ethyl acetate (ϵr 6.0, viscosity 0.45 cP).
Where [6] appears, read: Octan-1-ol (ϵr 10.3, viscosity 7.36 cP).

Turning to `CCCCCOc1cc2c3cc(OCCCCC)c(OCCCCC)cc3c3c(cc(OCCCCC)c4oc(-c5ccc(N(C)C)cc5)nc43)c2cc1OCCCCC` [Compound 22, N,N-dimethyl-4-(2,3,6,11,12-pentakis(pentyloxy)triphenyleno[1,2-d]oxazol-8-yl)aniline], in data set [1], the QY came out at 0.70, the “pSS (cm^−1)” value is on record as 13150 cm^−1, the “pSS (nm)” value came out at 150 nm and the “Absorption % Abs at 355 nm” value was found to be 54%. Moreover, in data set [1], the “Absorption % Abs at 405 nm” value came out at 2%, the “ε × 10^3 (M^−1 cm^−1) at 355 nm” value is listed as 39 × 10^3 M^−1 cm^−1, the “ε × 10^3 (M^−1 cm^−1) at 405 nm” value is recorded as 1.5 × 10^3 M^−1 cm^−1 and the “ε × 10^3 (M^−1 cm^−1) at λMax” value is on record as 72 × 10^3 M^−1 cm^−1. In data set [1], the “Absorption λMax” value was found to be 271 nm and the “Emission λMax” value stood at 421 nm.

As for `CCCCCOc1cc2c3cc(OCCCCC)c(OCCCCC)cc3c3c(cc(OCCCCC)c4oc(-c5ccc(OC)cc5)nc43)c2cc1OCCCCC` [Compound 45, 8-(4-methoxyphenyl)-2,3,6,11,12-pentakis(pentyloxy)triphenyleno[1,2-d]oxazole], in data set [1], the QY came out at 0.40, the “pSS (cm^−1)” value was found to be 14000 cm^−1, the “pSS (nm)” value turned out to be 174 nm and the “Absorption % Abs at 355 nm” value was 22%. In data set [1], the “Absorption % Abs at 405 nm” value came out at 0%, the “ε × 10^3 (M^−1 cm^−1) at 355 nm” value is 21 × 10^3 M^−1 cm^−1, the “ε × 10^3 (M^−1 cm^−1) at 405 nm” value is recorded as 0 × 10^3 M^−1 cm^−1 and the “ε × 10^3 (M^−1 cm^−1) at λMax” value is 97 × 10^3 M^−1 cm^−1. In data set [1], the “Absorption λMax” value turned out to be 270 nm and the “Emission λMax” value came out at 444 nm.

In the case of `CCCCCOc1cc2c3cc(OCCCCC)c(OCCCCC)cc3c3c(cc(OCCCCC)c4oc(-c5ccc(C#N)cc5)nc43)c2cc1OCCCCC` [Compound 12, 4-(2,3,6,11,12-pentakis(pentyloxy)triphenyleno[1,2-d]oxazol-8-yl)benzonitrile], in data set [1], the QY was found to be 0.32, the “pSS (cm^−1)” value was determined as 18800 cm^−1, the “pSS (nm)” value is 286 nm and the “Absorption % Abs at 355 nm” value is recorded as 12%. Further, in data set [1], the “Absorption % Abs at 405 nm” value was found to be 14%, the “ε × 10^3 (M^−1 cm^−1) at 355 nm” value is 13 × 10^3 M^−1 cm^−1, the “ε × 10^3 (M^−1 cm^−1) at 405 nm” value is recorded as 14 × 10^3 M^−1 cm^−1 and the “ε × 10^3 (M^−1 cm^−1) at λMax” value was 103 × 10^3 M^−1 cm^−1. Besides, in data set [1], the “Absorption λMax” value was found to be 272 nm and the “Emission λMax” value came to 558 nm.

Turning to `CCCCCOc1cc2c3cc(OCCCCC)c(OCCCCC)cc3c3c(cc(OCCCCC)c4oc(-c5cccc6ccccc56)nc43)c2cc1OCCCCC` [Compound 4, 8-(naphthalen-1-yl)-2,3,6,11,12-pentakis(pentyloxy)triphenyleno[1,2-d]oxazole], in data set [2] (setting [4]), the “Absorption λmax” value came out at 275 nm, the Brightness turned out to be 30 ± 3 M⁻¹ cm⁻¹, the “Emission λmax” value is given as 543 nm and the pSS is 18000 cm^−1. Besides, the Φ in data set [2] (setting [4]) is given as 0.36 ± 0.04. Also, in data set [2] (setting [5]), the “Absorption λmax” value was determined as 275 nm, the Brightness came out at 56 ± 5 M⁻¹ cm⁻¹, the “Emission λmax” value came to 510 nm and the pSS is on record as 16800 cm^−1. In data set [2] (setting [5]), the Φ was 0.48 ± 0.04. In addition, in data set [2] (setting [6]), the “Absorption λmax” value is on record as 275 nm, the Brightness was 67 ± 7 M⁻¹ cm⁻¹, the “Emission λmax” value was found to be 515 nm and the pSS worked out at 17000 cm^−1. In addition, the Φ in data set [2] (setting [6]) was 0.55 ± 0.05.

For the compound `CCCCCOc1cc2c3cc(OCCCCC)c(OCCCCC)cc3c3c(cc(OCCCCC)c4oc(-c5c6ccccc6cc6ccccc56)nc43)c2cc1OCCCCC` [Compound 6, 8-(anthracen-9-yl)-2,3,6,11,12-pentakis(pentyloxy)triphenyleno[1,2-d]oxazole], in data set [2] (setting [4]), the “Absorption λmax” value was found to be 253 nm, the “Emission λmax” value is 630 nm and the pSS amounted to 23650 cm^−1. Also, in data set [2] (setting [5]), the “Absorption λmax” value was determined as 253 nm, the “Emission λmax” value was determined as 594 nm and the pSS was 22700 cm^−1. Also, in data set [2] (setting [6]), the “Absorption λmax” value came out at 255 nm, the “Emission λmax” value stood at 384 nm and the pSS is 13200 cm^−1.

Turning to `CCCCCOc1cc2c3cc(OCCCCC)c(OCCCCC)cc3c3c(cc(OCCCCC)c4oc(-c5ccccc5)nc43)c2cc1OCCCCC` [Compound 2, 2,3,6,11,12-pentakis(pentyloxy)-8-phenyltriphenyleno[1,2-d]oxazole], in data set [2] (setting [4]), the “Absorption λmax” value amounted to 270 nm, the Brightness was determined as 38 ± 4 M⁻¹ cm⁻¹, the “Emission λmax” value was found to be 492 nm and the pSS came to 16700 cm^−1. The Φ in data set [2] (setting [4]) came to 0.46 ± 0.04. Moreover, in data set [2] (setting [5]), the “Absorption λmax” value is 270 nm, the Brightness stood at 51 ± 5 M⁻¹ cm⁻¹, the “Emission λmax” value is given as 467 nm and the pSS was determined as 15600 cm^−1. Also, the Φ in data set [2] (setting [5]) is reported as 0.46 ± 0.04. Besides, in data set [2] (setting [6]), the “Absorption λmax” value was determined as 271 nm, the Brightness worked out at 64 ± 6 M⁻¹ cm⁻¹, the “Emission λmax” value stood at 473 nm and the pSS is listed as 15800 cm^−1. Further, the Φ in data set [2] (setting [6]) stood at 0.61 ± 0.06.

As for `CCCCCOc1cc2c3cc(OCCCCC)c(OCCCCC)cc3c3c(cc(OCCCCC)c4oc(CCCC)nc43)c2cc1OCCCCC` [Compound 1, 8-butyl-2,3,6,11,12-pentakis(pentyloxy)triphenyleno[1,2-d]oxazole], in data set [2] (setting [4]), the “Absorption λmax” value stood at 281 nm, the Brightness amounted to 12 ± 2 M⁻¹ cm⁻¹, the “Emission λmax” value is listed as 367 nm and the pSS was determined as 8300 cm^−1. In data set [2] (setting [4]), this compound returned a Φ of 0.20 ± 0.02. Moreover, in data set [2] (setting [5]), the “Absorption λmax” value is 281 nm, the Brightness worked out at 29 ± 5 M⁻¹ cm⁻¹, the “Emission λmax” value is given as 367 nm and the pSS is listed as 8300 cm^−1. For the same compound, the Φ in data set [2] (setting [5]) was 0.18 ± 0.01. In addition, in data set [2] (setting [6]), the “Absorption λmax” value is recorded as 281 nm, the Brightness is 36 ± 7 M⁻¹ cm⁻¹, the “Emission λmax” value worked out at 367 nm and the pSS was found to be 8300 cm^−1. Also, the Φ in data set [2] (setting [6]) is 0.30 ± 0.03.

On to `CCCCCOc1cc2c3cc(OCCCCC)c(OCCCCC)cc3c3c(cc(OCCCCC)c4oc(-c5ccc6cc7ccccc7cc6c5)nc43)c2cc1OCCCCC` [Compound 5, 8-(anthracen-2-yl)-2,3,6,11,12-pentakis(pentyloxy)triphenyleno[1,2-d]oxazole], for which, in data set [2] (setting [4]), the “Absorption λmax” value is on record as 270 nm, the “Emission λmax” value was found to be 592 nm, the pSS was found to be 20200 cm^−1 and the Φ is on record as 0.21 ± 0.02. In data set [2] (setting [5]), the “Absorption λmax” value is 272 nm, the Brightness was determined as 53 ± 5 M⁻¹ cm⁻¹, the “Emission λmax” value was 536 nm and the pSS is on record as 18100 cm^−1. In data set [2] (setting [5]), this compound displayed a Φ of 0.51 ± 0.04. In data set [2] (setting [6]), the “Absorption λmax” value is recorded as 270 nm, the Brightness came out at 50 ± 5 M⁻¹ cm⁻¹, the “Emission λmax” value was 526 nm and the pSS turned out to be 18000 cm^−1. Moreover, the Φ in data set [2] (setting [6]) is recorded as 0.56 ± 0.05.

As for `CCCCCOc1cc2c(cc1OCCOCCOCCOC)c1cc(OCCOCCOCCOC)c(OCCOCCOCCOC)cc1c1cc(OCCOCCOCCOC)c3oc(C)nc3c21` [Compound 32, 2,3,6,12-tetrakis(2-(2-(2-methoxyethoxy)ethoxy)ethoxy)-8-methyl-11-(pentyloxy)triphenyleno[1,2-d]oxazole], the Water solubility result in data set [3] is recorded as “water soluble”.
